Converted amounts (≈) assume the structure as drawn.
Tested on: Mycobacterium tuberculosis variant bovis
Assay: Antimycobacterial activity against Mycobacterium bovis 8 by serial dilution method
Type: functional

**Q.** For NNC(=O)c1ccncc1 [ISONIAZID], which MIC is on record?
**A.** 0.015 to 0.06 mg/L (≈ 0.109 to 0.438 µM)

Reference: ChEMBL document CHEMBL4052616, “Isoniazid derivatives and their anti-tubercular activity” (Eur J Med Chem, 2017)
